Data from US20140205537A1, “LRRK2 INHIBITORS” (ZENOBIA THERAPEUTICS, INC., priority 2011, published 2014).
pIC50: −log10 of the molar value.

How the values were obtained:
Type in all cases: biochemical
CDK1/cyclinB = CDK1/cyclinB (Homo sapiens, UniProt P06493); assay: Kinase selectivity panel: CDK1/cyclinB
CHEK1 = biological target: T1, CHEK1 (Homo sapiens, UniProt O14757); assay: Kinase selectivity panel: CHEK1
T1 sequence (O14757 1-476): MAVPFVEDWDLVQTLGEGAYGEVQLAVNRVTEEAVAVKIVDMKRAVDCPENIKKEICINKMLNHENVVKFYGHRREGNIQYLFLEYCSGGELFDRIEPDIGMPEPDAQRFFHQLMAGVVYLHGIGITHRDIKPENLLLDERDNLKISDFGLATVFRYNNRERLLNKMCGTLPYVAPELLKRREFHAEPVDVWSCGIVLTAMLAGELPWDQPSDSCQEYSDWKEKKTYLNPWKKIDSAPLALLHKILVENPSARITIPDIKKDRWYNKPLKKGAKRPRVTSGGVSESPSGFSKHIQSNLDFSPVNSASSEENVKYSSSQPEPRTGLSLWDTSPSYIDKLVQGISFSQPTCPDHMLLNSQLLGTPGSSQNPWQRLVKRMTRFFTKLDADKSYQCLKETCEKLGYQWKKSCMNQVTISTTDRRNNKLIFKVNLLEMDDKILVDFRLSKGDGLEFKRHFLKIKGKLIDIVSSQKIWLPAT

DCK2 = DCK2 (Homo sapiens, UniProt Q8N568); assay: Kinase selectivity panel: DCK2
IRAK4 = biological target: T2, IRAK4 (Homo sapiens, UniProt Q9NWZ3); assay: Kinase selectivity panel: IRAK4
T2 sequence (Q9NWZ3 1-460): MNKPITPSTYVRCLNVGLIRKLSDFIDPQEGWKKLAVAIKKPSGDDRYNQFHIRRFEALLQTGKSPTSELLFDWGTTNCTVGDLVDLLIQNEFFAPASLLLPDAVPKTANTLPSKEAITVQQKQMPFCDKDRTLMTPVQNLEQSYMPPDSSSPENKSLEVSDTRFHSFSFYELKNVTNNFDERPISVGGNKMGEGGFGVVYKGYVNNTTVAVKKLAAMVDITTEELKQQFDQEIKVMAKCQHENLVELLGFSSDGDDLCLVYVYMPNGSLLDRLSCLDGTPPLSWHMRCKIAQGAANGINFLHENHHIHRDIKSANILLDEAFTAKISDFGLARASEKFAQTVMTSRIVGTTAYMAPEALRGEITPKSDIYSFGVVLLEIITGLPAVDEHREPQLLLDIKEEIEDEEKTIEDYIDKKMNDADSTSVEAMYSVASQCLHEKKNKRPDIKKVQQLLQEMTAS

mTOR = mTOR (Homo sapiens, UniProt P42345); assay: Kinase selectivity panel: mTOR
IGF1R = IGF1R (Homo sapiens, UniProt P08069); assay: Kinase selectivity panel: IGF1R
IKKbeta = IKKbeta (Homo sapiens, UniProt O14920); assay: Kinase selectivity panel: IKKbeta
MEK1 = MEK1 (Homo sapiens, UniProt Q02750); assay: Kinase selectivity panel: MEK1
Sequence of MEK1 (Q02750 whole entry, species assumed): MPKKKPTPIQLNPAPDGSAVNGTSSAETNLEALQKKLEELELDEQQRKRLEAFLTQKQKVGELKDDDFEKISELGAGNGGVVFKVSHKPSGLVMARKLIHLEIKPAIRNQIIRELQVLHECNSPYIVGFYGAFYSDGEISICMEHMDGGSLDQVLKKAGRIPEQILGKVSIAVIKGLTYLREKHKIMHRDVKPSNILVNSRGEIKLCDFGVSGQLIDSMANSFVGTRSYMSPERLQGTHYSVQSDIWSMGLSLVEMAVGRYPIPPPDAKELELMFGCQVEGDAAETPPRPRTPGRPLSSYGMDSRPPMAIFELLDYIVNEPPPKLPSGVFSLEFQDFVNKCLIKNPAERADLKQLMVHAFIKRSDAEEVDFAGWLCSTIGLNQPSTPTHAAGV

HGK = HGK (Homo sapiens, UniProt O95819); assay: Kinase selectivity panel: HGK
Sequence of HGK (O95819 whole entry, species assumed): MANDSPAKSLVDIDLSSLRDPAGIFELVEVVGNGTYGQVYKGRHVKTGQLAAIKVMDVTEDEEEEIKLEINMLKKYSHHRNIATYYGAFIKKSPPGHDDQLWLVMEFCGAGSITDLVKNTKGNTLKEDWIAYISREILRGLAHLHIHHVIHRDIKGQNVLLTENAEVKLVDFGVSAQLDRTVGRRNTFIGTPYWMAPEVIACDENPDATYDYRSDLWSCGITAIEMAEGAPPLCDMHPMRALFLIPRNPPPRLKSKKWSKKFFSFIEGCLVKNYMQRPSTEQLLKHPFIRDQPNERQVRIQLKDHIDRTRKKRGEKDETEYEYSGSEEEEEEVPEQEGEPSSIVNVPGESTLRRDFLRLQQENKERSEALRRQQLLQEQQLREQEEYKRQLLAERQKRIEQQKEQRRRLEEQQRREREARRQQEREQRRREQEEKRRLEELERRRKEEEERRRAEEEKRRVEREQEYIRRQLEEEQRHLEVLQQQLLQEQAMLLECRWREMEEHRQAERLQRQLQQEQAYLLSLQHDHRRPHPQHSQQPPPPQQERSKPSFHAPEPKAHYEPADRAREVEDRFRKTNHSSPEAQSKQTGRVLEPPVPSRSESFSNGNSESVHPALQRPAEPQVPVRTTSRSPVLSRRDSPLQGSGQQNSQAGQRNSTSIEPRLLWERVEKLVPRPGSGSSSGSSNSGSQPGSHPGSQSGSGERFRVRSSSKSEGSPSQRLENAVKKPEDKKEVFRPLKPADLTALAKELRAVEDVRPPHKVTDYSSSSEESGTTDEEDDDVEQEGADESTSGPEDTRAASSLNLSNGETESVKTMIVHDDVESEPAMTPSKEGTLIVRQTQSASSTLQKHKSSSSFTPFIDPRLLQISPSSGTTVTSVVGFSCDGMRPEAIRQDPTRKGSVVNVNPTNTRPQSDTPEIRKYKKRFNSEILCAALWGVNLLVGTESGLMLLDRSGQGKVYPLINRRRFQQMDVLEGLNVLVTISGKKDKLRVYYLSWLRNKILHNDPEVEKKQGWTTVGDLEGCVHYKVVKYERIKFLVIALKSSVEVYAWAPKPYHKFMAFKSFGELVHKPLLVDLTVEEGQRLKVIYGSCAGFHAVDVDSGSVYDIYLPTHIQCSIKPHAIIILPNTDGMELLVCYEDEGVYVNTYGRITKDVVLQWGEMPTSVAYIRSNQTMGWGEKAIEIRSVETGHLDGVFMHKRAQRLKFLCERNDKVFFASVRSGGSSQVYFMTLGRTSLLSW

ERK2 = ERK2 (Homo sapiens, UniProt P28482); assay: Kinase selectivity panel: ERK2
Sequence of ERK2 (P28482 whole entry, species assumed): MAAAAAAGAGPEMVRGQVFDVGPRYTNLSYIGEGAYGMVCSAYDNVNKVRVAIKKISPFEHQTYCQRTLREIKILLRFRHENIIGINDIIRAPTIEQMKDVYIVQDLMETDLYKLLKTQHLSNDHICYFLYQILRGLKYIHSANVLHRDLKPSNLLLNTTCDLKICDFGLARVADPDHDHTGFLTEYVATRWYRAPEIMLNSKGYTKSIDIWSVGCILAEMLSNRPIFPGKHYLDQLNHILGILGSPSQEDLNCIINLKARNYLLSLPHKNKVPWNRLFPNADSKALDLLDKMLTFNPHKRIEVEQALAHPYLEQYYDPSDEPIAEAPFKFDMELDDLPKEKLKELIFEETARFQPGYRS

JNK1 = JNK1 (Homo sapiens, UniProt P45983); assay: Kinase selectivity panel: JNK1
cMet = cMet (Homo sapiens, UniProt P08581); assay: Kinase selectivity panel: cMet
NEK1 = NEK1 (Homo sapiens, UniProt Q96PY6); assay: Kinase selectivity panel: NEK1
Sequence of NEK1 (Q96PY6 whole entry, species assumed): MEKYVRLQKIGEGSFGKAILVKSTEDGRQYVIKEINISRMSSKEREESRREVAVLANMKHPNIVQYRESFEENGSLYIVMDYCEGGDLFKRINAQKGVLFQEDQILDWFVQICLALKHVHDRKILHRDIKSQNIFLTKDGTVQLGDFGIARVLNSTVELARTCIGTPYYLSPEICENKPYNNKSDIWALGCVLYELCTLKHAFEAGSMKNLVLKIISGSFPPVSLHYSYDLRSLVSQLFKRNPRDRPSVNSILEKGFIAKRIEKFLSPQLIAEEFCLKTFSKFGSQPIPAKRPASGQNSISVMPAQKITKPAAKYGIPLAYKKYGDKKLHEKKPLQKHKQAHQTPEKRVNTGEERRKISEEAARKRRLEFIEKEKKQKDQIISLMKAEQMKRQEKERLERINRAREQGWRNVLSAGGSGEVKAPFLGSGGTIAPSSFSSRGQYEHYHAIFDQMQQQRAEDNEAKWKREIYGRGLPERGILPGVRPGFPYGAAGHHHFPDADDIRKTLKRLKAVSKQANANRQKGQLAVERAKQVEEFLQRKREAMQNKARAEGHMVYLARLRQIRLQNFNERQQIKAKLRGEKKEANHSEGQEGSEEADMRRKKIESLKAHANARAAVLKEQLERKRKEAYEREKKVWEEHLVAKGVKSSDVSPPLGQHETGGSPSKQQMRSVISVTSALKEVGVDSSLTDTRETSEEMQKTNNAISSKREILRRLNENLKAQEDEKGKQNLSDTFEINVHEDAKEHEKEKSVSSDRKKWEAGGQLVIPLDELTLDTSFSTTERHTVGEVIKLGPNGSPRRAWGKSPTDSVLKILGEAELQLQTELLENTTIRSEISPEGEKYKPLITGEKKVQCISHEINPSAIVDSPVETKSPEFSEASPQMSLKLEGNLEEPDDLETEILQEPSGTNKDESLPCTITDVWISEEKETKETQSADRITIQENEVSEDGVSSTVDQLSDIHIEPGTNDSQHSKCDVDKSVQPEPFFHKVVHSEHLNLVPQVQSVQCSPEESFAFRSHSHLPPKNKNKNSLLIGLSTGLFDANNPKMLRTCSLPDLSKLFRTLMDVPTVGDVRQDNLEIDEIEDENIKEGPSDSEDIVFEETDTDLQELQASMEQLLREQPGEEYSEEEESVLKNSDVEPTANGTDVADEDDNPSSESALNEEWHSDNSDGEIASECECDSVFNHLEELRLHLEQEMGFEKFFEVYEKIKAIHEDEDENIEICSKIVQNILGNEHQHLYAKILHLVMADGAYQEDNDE

TRKA = TRKA (Homo sapiens, UniProt P04629); assay: Kinase selectivity panel: TRKA
Sequence of TRKA (P04629 33-796, species assumed): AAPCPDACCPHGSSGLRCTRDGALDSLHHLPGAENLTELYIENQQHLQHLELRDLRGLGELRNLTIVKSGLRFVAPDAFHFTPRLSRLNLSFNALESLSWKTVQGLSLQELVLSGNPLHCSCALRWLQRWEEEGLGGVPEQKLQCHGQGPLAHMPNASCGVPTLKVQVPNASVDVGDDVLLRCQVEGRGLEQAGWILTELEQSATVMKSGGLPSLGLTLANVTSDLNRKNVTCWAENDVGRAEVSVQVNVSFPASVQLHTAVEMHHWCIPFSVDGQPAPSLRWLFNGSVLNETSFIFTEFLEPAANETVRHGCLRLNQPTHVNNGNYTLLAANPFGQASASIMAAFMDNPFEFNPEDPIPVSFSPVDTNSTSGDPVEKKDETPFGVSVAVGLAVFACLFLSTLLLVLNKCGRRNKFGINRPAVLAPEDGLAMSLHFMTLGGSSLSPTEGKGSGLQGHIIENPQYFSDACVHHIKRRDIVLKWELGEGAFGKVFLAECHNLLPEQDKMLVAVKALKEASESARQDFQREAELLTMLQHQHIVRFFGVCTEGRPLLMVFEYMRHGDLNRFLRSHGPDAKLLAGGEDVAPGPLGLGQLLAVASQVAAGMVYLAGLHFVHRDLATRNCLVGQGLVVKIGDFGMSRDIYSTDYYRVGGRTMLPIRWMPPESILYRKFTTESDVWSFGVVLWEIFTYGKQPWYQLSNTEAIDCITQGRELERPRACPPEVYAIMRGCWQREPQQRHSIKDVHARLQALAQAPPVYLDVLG

P70S6K = P70S6K (Homo sapiens, UniProt P23443); assay: Kinase selectivity panel: P70S6K
Sequence of P70S6K (P23443 whole entry): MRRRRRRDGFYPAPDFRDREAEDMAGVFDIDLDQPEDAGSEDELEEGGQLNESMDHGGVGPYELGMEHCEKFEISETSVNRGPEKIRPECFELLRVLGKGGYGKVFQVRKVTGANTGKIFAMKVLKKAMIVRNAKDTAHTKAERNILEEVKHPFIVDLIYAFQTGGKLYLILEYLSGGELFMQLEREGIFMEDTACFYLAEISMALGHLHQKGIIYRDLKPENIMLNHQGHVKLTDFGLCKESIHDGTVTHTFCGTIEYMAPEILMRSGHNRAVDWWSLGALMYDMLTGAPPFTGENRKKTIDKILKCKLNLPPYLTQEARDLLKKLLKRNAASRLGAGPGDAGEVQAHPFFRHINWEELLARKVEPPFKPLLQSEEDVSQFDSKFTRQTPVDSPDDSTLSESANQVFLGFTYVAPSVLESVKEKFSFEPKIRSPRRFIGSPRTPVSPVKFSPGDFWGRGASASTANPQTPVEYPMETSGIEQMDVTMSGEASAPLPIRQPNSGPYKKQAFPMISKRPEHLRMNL

SRC = SRC (Homo sapiens, UniProt P12931); assay: Kinase selectivity panel: SRC
Sequence of SRC (P12931 whole entry, species assumed): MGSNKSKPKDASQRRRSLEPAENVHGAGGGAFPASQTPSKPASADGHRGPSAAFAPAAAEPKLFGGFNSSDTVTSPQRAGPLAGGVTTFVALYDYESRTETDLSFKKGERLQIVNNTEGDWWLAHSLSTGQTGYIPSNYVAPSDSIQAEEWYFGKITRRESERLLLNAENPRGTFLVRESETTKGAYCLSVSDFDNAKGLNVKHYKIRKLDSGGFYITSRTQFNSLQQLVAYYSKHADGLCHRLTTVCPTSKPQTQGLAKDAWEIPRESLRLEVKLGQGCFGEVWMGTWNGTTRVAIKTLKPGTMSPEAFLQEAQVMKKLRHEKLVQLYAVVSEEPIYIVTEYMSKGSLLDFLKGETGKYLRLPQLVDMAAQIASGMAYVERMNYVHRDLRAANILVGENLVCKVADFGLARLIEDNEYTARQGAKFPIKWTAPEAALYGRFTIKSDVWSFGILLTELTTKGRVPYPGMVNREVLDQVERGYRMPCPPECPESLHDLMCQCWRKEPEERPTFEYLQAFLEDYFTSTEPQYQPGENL

inhibition at 0.1 µM (CDK1/cyclinB): 0%
pIC50 (CHEK1): < 5.00
inhibition at 0.1 µM (CHEK1; @0.1 uM): 3%
inhibition at 0.1 µM (DCK2): 8%
pIC50 (IRAK4): < 5.00
inhibition at 0.1 µM (IRAK4; @0.1 uM): -1%
inhibition at 0.1 µM (mTOR): 12%
inhibition at 0.1 µM (IGF1R): 7%
inhibition at 0.1 µM (IKKbeta): 7%
inhibition at 0.1 µM (MEK1): 16%
inhibition at 0.1 µM (HGK): -18%
inhibition at 0.1 µM (ERK2): 8%
inhibition at 0.1 µM (JNK1): -5%
inhibition at 0.1 µM (cMet): 7%
inhibition at 0.1 µM (NEK1): 10%
inhibition at 0.1 µM (TRKA): 11%
inhibition at 0.1 µM (P70S6K): 5%
inhibition at 0.1 µM (SRC): 13%
SMILES: COc1ccc2c(c1)/C(=C/c1cnc(C3CCOCC3)[nH]1)C(=O)N2 [Compound 18, (3Z)-5-methoxy-3-[(2-tetrahydropyran-4-yl-1H-imidazol-5-yl)methylene]indolin-2-one]
